Active and inactive are the calls of the source. The rule behind the calls is not given here.
Experiments:
[1] = species: Homo sapiens; assay: Selectivity ratio of IC50 for human kappa opioid receptor to IC50 for human NOP receptor
[2] = species: Homo sapiens; assay: Selectivity ratio of IC50 for human mu opioid receptor to IC50 for human NOP receptor
[3] = target: T1, Nociceptin receptor (Homo sapiens, UniProt P41146); assay: Displacement of [125I]Tyr14-nociceptin from human NOP receptor expressed in human HEK293 cells after 90 mins by scintillation counting
T1 sequence (P41146 whole entry): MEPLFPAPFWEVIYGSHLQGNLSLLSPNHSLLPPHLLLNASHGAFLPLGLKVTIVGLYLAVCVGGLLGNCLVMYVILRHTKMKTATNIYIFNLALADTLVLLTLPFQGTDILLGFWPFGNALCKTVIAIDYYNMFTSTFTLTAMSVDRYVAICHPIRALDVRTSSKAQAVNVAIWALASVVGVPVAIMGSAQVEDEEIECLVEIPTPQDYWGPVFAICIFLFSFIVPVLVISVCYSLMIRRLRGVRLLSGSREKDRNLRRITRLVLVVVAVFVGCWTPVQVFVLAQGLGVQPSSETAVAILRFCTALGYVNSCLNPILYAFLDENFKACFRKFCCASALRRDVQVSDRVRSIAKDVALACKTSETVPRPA

[4] = target: Kappa-type opioid receptor (Homo sapiens, UniProt P41145); assay: Displacement of [3H]-diprenorphine from human kappa opioid receptor expressed in human HEK293 cells after 2 hrs by scintillation counting
Sequence of Kappa-type opioid receptor (P41145 whole entry): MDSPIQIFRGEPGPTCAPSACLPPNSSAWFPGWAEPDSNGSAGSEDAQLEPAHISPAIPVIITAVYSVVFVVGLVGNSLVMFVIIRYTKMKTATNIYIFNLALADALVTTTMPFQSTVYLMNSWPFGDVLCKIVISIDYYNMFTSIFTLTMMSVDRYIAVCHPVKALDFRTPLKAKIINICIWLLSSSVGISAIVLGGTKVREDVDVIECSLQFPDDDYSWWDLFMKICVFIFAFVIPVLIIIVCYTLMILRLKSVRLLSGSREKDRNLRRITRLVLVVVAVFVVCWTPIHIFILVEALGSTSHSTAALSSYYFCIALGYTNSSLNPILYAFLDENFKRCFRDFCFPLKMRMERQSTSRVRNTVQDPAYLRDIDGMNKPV

[5] = target: T1, Nociceptin receptor; assay: Antagonist activity at human NOP receptor expressed in human HEK293 cells assessed as inhibition of GTPgammaS binding in presence of 300 nM GDP relative to control; format: functional, cell-based
[6] = target: Delta-type opioid receptor (Homo sapiens) (UniProt P41143); assay: Displacement of [3H]-naltrindole from human delta opioid receptor expressed in human HEK293 cells after 2 hrs by scintillation counting; format: cell-based
Sequence of Delta-type opioid receptor (Homo sapiens) (P41143 whole entry): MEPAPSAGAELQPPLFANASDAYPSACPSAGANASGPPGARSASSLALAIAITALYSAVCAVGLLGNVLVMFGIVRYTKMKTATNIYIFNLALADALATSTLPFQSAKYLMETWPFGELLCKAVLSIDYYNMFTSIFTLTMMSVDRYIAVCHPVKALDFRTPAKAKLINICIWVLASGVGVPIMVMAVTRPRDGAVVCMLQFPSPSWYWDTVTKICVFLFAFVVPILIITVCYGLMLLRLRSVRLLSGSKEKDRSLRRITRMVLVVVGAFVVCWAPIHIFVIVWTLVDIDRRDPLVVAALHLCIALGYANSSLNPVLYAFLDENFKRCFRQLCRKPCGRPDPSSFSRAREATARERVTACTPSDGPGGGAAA

[7] = target: Mu-type opioid receptor (Homo sapiens, UniProt P35372); assay: Displacement of [3H]-naltrindole from human mu opioid receptor expressed in CHO cells after 2 hrs by scintillation counting; format: cell-based
Sequence of Mu-type opioid receptor (P35372 whole entry): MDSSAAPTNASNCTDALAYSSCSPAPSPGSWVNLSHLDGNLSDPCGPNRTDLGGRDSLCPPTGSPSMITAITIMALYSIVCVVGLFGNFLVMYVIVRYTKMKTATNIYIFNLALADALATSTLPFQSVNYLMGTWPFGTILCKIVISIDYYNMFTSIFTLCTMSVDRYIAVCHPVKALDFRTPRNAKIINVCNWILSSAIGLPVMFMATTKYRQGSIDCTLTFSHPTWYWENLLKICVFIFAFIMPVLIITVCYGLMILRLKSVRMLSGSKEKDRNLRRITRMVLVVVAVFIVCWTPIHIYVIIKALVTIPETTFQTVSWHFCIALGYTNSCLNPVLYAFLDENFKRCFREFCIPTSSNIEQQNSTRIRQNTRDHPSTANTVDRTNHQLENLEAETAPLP

SMILES	Ratio IC50 [1]	Ratio IC50 [2]	IC50 [3]	IC50 [4]	Activity [5]	Activity [6]	IC50 [7]
Cc1cc(N)c2cc(NC(=O)c3ccccc3COc3ccc(CNCCCCCCCN)cc3)ccc2n1	5.7	57	0.246 µM	0.998 µM	Active	inactive	9.98 µM
Cc1cc(N)c2cc(NC(=O)c3ccccc3COc3ccc(CNCCCCCCNCc4ccc(OCc5ccccc5C(=O)Nc5ccc6nc(C)cc(N)c6c5)cc4)cc3)ccc2n1	30	31	0.0717 µM	1.35 µM	Active	inactive	1.39 µM
Cc1cc(N)c2cc(NC(=O)c3ccccc3COc3ccc(CNCCCCCCCCCNCc4ccc(OCc5ccccc5C(=O)Nc5ccc6nc(C)cc(N)c6c5)cc4)cc3)ccc2n1	36	40	0.0281 µM	1.05 µM	Active	inactive	1.16 µM

Continued, values first:

Ratio IC50 [1]	Ratio IC50 [2]	IC50 [3]	IC50 [4]	Activity [5]	Activity [6]	IC50 [7]	SMILES
14	12	0.16 µM	1.65 µM	Active	inactive	1.4 µM	Cc1cc(N)c2cc(NC(=O)c3ccccc3COc3ccc(CNCCCN)cc3)ccc2n1
40	46	0.212 µM	6.18 µM	Active	inactive	7.07 µM	Cc1cc(N)c2cc(NC(=O)c3ccccc3COc3ccc(CNCCCCCCCCCN)cc3)ccc2n1
7.2	9	0.8 µM	4.26 µM	Active	inactive	5.33 µM	Cc1cc(N)c2cc(NC(=O)c3ccccc3COc3ccc(CNCCCCN)cc3)ccc2n1

Source: ChEMBL document CHEMBL1759965, “Synthesis and pharmacological evaluation of bivalent antagonists of the nociceptin opioid receptor” (Eur J Med Chem, 2011)
